The text below walks through data of US8952060B2, “Composition for preventing hair loss or for stimulating hair growth” (Amorepacific Corporation, priority 2009, dated 2015).

Type in all cases: in vivo
Experiment [1] concerns hair growth at depilated back portions of mice (C57BL/6). Description: Hair growth and hair weight after skin application in depilated mice. The method, then: According to one embodiment, sodium valproate is administered to subjects via external application to the skin and then tested for its effect for promoting hair growth. Seven week aged female mice (C57BL/6) are subjected to depilation at their back portions. Next, 7.2% sodium valproate is applied to the depilated back portions of mice of each test group twice per day. As a control, a mixed solution of propylene glycol/ethanol/water (5:3:2) is used. After the skin application, hair growth is observed at an interval of one week. After 6 weeks, hair weight after the depilation is measured.

For experiment [2] the test system is unchanged. Description: Hair growth and hair weight after oral administration in depilated mice. Particulars: for hair growth as compared to the control (FIG. 2): 0.2 g/kg everyday for 5 weeks. How it is done:
According to one embodiment, sodium valproate is administered orally to subjects and then tested for its effect for promoting hair growth. Seven week aged female mice (C57BL/6) are subjected to depilation at their back portions. Next, valproic acid is administered orally to mice of each test group everyday for 5 weeks. The control (mixed solution of distilled water, 1% methyl cellulose and 0.5% Tween 80™) and sodium valproate each are administered in a unit dose of 0.2 g/kg. After the administration, hair growth is observed at an interval of one week. After 5 weeks, hair weight after the depilation is measured.

Experiment [3] shares this test system. Description: Hair growth after subcutaneous injection in depilated mice. The following applies: 3% solution, subcutaneous injection 50 μL every 3-4 days, seven times. The method, then: According to one embodiment, sodium valproate (VPA) is administered to subjects via subcutaneous injection and then tested for its effect for promoting hair growth. Seven week aged female mice (C57BL/6) are subjected to depilation at their back portions. Next, 3% sodium valproate solution is administered via subcutaneous injection to the left side of each depilated back portion in a unit dose of 50 μL at an interval of 3-4 days seven times in total. Then, the degree of hair growth is observed 1, 16 and 30 days after starting the test. In the test of FIG. 1, sodium valproate is injected subcutaneously to the left portion (marked by a circle) of the back of each mouse.

Turning to `CCCC(CCC)C(=O)[O-].[Na+]` [sodium valproate], the “hair growth as compared to the control (FIG. 4)” value in experiment [1] (7.2% skin application twice per day) is “promotes hair growth”. In addition, in experiment [1] (7.2% skin application twice per day, after 6 weeks, control about 35 mg), the “hair weight (FIG. 5)” value was at least 80 mg. In experiment [2], the “hair growth as compared to the control (FIG. 2)” value was “delays hair growth”. Also, the “hair weight (FIG. 3)” value in experiment [2] (0.2 g/kg everyday, after 5 weeks, control about 85 mg) was found to be 65 mg. Further, the “degree of hair growth as compared to the control (FIG. 1)” value in experiment [3] (after 16 days, control = right side of back) is on record as “hair growth is promoted”. Besides, the “formation of new hair follicles (FIG. 1)” value in experiment [3] (after 30 days) is recorded as “new hair follicles are formed”.
`CCCC(CCC)C(=O)O` [valproic acid, 2-propylpentanoic acid]: the “hair growth, summary statement” value in experiment [1] (transdermal administration (subcutaneous injection or skin application)) is given as “promotes hair growth”. Also, the “hair growth as compared to the control (FIG. 2)” value in experiment [2] is “inhibits hair growth”.
